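Tested at 5 concentrations; 48 h exposure; 96-well plates; endpoints linearly interpolated, else capped at highest concentration. Abbreviation: GI50, concentration required for 50% inhibition of growth.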 Activity calls are given as the source filed them. Rule as the data show it: active = GI50 up to about 1.1 µM and inactive = higher.
Legend:
Test in all cases: DTP human tumour cell line panel, 48 h
[1] = tested on: HOP-62
[2] = tested on: 786-0
[3] = tested on: SN12C
[4] = tested on: RXF 393
[5] = tested on: SK-MEL-5
[6] = tested on: NCI-H23
[7] = tested on: HT-29
[8] = tested on: U-251
[9] = tested on: EKVX
[10] = tested on: IGROV-1
[11] = tested on: OVCAR-8
[12] = tested on: TK-10
[13] = tested on: A549
[14] = tested on: SF-295
[15] = tested on: SR
[16] = tested on: SF-539
[17] = tested on: MOLT-4
[18] = tested on: UACC-62
[19] = tested on: M14

Measured: GI50

O=C(O)c1ccc(O)c(/N=N/c2cc(S(=O)(=O)O)c3ccccc3c2O)c1
inactive: [1] 19.6 µM | [2] > 100 µM | [3] > 100 µM | [4] > 100 µM | [5] > 100 µM | [6] > 100 µM | [7] 50.7 µM | [8] > 100 µM | [9] 23.3 µM | [10] 45.1 µM | [11] > 100 µM | [12] > 100 µM | [13] > 100 µM | [14] > 10 µM | [15] > 100 µM | [16] > 10 µM | [17] > 100 µM

O=C(CC1(O)C(=O)Nc2ccc(Br)cc21)c1ccc(Cl)cc1Cl (stereo unspecified)
inactive: [1] 83.6 µM | [2] 87.1 µM | [3] 35.6 µM | [4] 91.6 µM | [18] 17.2 µM | [19] 34.8 µM | [6] 53.2 µM | [7] 38.3 µM | [8] 49.2 µM | [9] > 100 µM | [10] 51.4 µM | [11] 47.9 µM | [12] 56.2 µM | [13] 92 µM | [14] 64.7 µM | [15] 23.7 µM | [16] 45.5 µM | [17] 26.3 µM

COc1c(Sc2ccccc2)cc(Sc2ccccc2)c2cccnc12
inactive: [1] 34.9 µM | [2] 20.2 µM | [3] 28.2 µM | [4] 11.8 µM | [18] 18.2 µM | [5] 16.4 µM | [19] 27 µM | [6] 19.5 µM | [7] 24.9 µM | [8] 29.2 µM | [9] 28.2 µM | [10] 46.1 µM | [11] 27.4 µM | [12] 23.2 µM | [13] 24 µM | [14] 17.3 µM | [16] 26.2 µM | [17] 19.5 µM

CC1CCC(C(C)C)C(OC(=O)NCn2cc(-c3ccccc3)nn2)C1 (stereo unspecified)
inactive: [1] 25.6 µM | [2] 41.2 µM | [3] > 100 µM | [5] > 100 µM | [19] > 100 µM | [6] > 100 µM | [7] > 100 µM | [8] > 100 µM | [9] > 100 µM | [10] > 100 µM | [11] 75.5 µM | [12] 75.5 µM | [13] > 100 µM | [14] > 100 µM | [15] > 100 µM | [16] 48.3 µM

COc1ccc(CN2CC(C)(C)C2=O)c(OC)c1
inactive: [1] > 100 µM | [2] > 100 µM | [3] > 100 µM | [4] > 100 µM | [18] > 100 µM | [5] > 100 µM | [19] > 100 µM | [6] > 100 µM | [7] > 100 µM | [8] > 100 µM | [9] > 100 µM | [10] > 100 µM | [11] > 100 µM | [12] > 100 µM | [13] > 100 µM | [14] > 100 µM | [16] > 100 µM | [17] > 100 µM

COc1ccc2cc3nc(O)cc(O)c3cc2c1OC
inactive: [1] > 100 µM | [2] > 100 µM | [3] > 100 µM | [4] > 100 µM | [18] > 100 µM | [19] > 100 µM | [6] > 100 µM | [7] > 100 µM | [8] > 100 µM | [9] > 100 µM | [10] > 100 µM | [11] > 100 µM | [12] > 100 µM | [13] > 100 µM | [14] > 100 µM | [15] > 100 µM | [16] > 100 µM | [17] > 100 µM

CN(/C(=N\O)c1ccccc1)c1ccccc1
inactive: [1] 22.9 µM | [2] 21.7 µM | [3] 32.1 µM | [19] 21.6 µM | [6] 24.4 µM | [7] 30.5 µM | [8] 17.2 µM | [9] 23.3 µM | [11] 24.8 µM | [13] 47 µM | [14] 21 µM | [15] 25 µM | [16] 22.6 µM

COc1ccc(C2=NNC(=O)OC2c2ccccc2)cc1 (stereo unspecified)
inactive: [1] > 100 µM | [2] > 100 µM | [3] > 100 µM | [4] 38 µM | [18] 59.2 µM | [19] 50.7 µM | [6] 53.5 µM | [7] 38 µM | [8] > 100 µM | [9] 76 µM | [10] > 100 µM | [11] > 100 µM | [12] > 100 µM | [13] 51.5 µM | [14] 22.4 µM | [15] 55.2 µM | [16] > 100 µM | [17] 43.8 µM

COC1CC(n2cnc3c(N)ncnc32)OC1CO (stereo unspecified)
inactive: [1] > 100 µM | [2] > 100 µM | [18] > 100 µM | [5] > 100 µM | [19] > 100 µM | [6] 81.5 µM | [7] > 100 µM | [8] > 100 µM | [10] > 100 µM | [11] > 100 µM | [12] > 100 µM | [13] > 100 µM | [14] > 100 µM | [15] > 100 µM | [16] > 100 µM | [17] > 100 µM

Cn1c(=O)c(C(=O)NC23CC4CC(CC(C4)C2)C3)c(O)c2ccccc21
inactive: [1] 21.8 µM | [2] 14.3 µM | [3] 21.9 µM | [4] 14.8 µM | [18] 53.7 µM | [19] 28.8 µM | [6] 67.9 µM | [7] 15.8 µM | [8] 24.5 µM | [9] 31.5 µM | [10] 31.8 µM | [11] 23.3 µM | [12] 23.8 µM | [13] 28.8 µM | [14] 18.5 µM | [15] > 100 µM | [16] 26.7 µM | [17] > 100 µM

Cc1cc(N(CCC#N)CCC#N)ccc1/C=C(\NC(=O)/C=C/c1ccccc1)C(=O)N=[N+]=[N-]
inactive: [1] 32.1 µM | [2] 37.5 µM | [3] > 100 µM | [4] 34.8 µM | [18] > 100 µM | [5] > 100 µM | [19] > 100 µM | [6] > 100 µM | [7] > 100 µM | [8] 43.1 µM | [9] > 100 µM | [10] > 100 µM | [11] > 100 µM | [12] > 100 µM | [13] > 100 µM | [14] 17.2 µM | [16] 52.5 µM | [17] > 100 µM

O=C1c2cccc(O)c2C(=O)c2c(O)cccc21 [DANTHRON]
inactive: [1] > 100 µM | [2] > 100 µM | [3] > 100 µM | [4] 92.5 µM | [18] 16 µM | [19] 97.7 µM | [6] > 100 µM | [7] 35.8 µM | [8] 69.3 µM | [9] 98.9 µM | [10] > 100 µM | [11] > 100 µM | [12] > 100 µM | [13] 56.1 µM | [14] 55.6 µM | [15] 43.3 µM | [16] 53.6 µM | [17] 40.1 µM
